Data: patent publication US4218448A, “Antihypertensive polyfluorohydroxyisopropyl bicyclic and tricyclic carbostyrils” (E. I. Du Pont de Nemours and Company, priority 1977, dated 1980)

Test system: DOCA hypertensive rats
Experiment: Antihypertensive activity in DOCA hypertensive rats (oral), systolic arterial blood pressure
Type: in vivo
Settings: Rattus norvegicus, 1.5 h; oral, groups of 8 DOCA hypertensive rats, usually 90 minutes after treatment; dose producing 30 mm Hg reduction in blood pressure vs controls (Effective Dose 30, ED30); read-out: ED50
Method: Rats are made hypertensive by subcutaneous implantation of pellets of desoxycorticosterone acetate (DOCA) and by giving saline solution to drink essentially according to the method described by Sturtevant [Annals of Internal Medicine, 49, 1281 (1958)]. Graded dose levels of each compound are administered orally to groups of 8 hypertensive rats. The compound is prepared in an aqueous polyvinyl alcohol/acacia vehicle and administered at a volume to body weight ratio of 5.0 ml/kg. Sixteen hypertensive rats receiving the aqueous vehicle by the same route serve as controls for each test. At various intervals of time after treatment, usually 90 minutes, the systolic arterial blood pressure of each rat is determined by a modification of the microphone-manometer technique [Friedman, M. and Freed, S. C., Proc. Soc. Exp. Biol, and Med., 70, 670 (1949)]. […]

Which ED (30 mm Hg) does the source give for Cc1cc(=O)n2c3c(cc(C(O)(C(F)(F)F)C(F)(F)F)cc13)C(C)CC2 (centres unmarked) here?
Its ED (30 mm Hg) is 3.6 mg/kg.

For Cc1cc(=O)n2c3c(cc(C(O)(C(F)(F)F)C(F)(F)F)cc13)C(C)C2 (centres unmarked), which ED (30 mm Hg) is on record?
Its ED (30 mm Hg) is 0.6 mg/kg.

For Cc1cc(=O)n2c3c(cc(C(O)(C(F)(F)F)C(F)(F)F)cc13)CCC2 [Example 1, 2,3-dihydro-9-[2,2,2-trifluoro-1-hydroxy-1-(trifluoromethyl)ethyl]-7-methyl-1H,5H-benzo[ij]quinolizin-5-one], which ED (30 mm Hg) is on record?
The ED (30 mm Hg) was 1 mg/kg.

With Cc1cc(=O)n2c3c(cc(C(O)(C(F)(F)F)C(F)(F)F)cc13)CCC2C (centres unmarked) [Example 2, 2,3-dihydro-3,7-dimethyl-9-[2,2,2-trifluoro-1-hydroxy-1-(trifluoromethyl)ethyl]-1H,5H-benzo-[ij]quinolizin-5-one] as the molecule, how does the ED (30 mm Hg) read?
Its ED (30 mm Hg) is 0.66 mg/kg.

With CCc1cc(=O)n2c3c(cc(C(O)(C(F)(F)F)C(F)(F)F)cc13)CCC2 [Example 8, 2,3-dihydro-7-ethyl-9-[2,2,2-trifluoro-1-hydroxy-1-(trifluoromethyl)-ethyl]-1H,5H-benzo[ij]quinolizin-5-one] as the molecule, how does the ED (30 mm Hg) read?
The ED (30 mm Hg) was 0.27 mg/kg.

With Cc1c(Br)c(=O)n2c3c(cc(C(O)(C(F)(F)F)C(F)(F)F)cc13)CCC2 [Example 10] as the molecule, how does the ED (30 mm Hg) read?
The ED (30 mm Hg) was 9 mg/kg.

For Cc1cc(=O)n2c3c(cc(C(O)(C(F)(F)F)C(F)(F)F)cc13)CC2 [Example 11, 1,2-dihydro-8-[2,2,2-trifluoro-1-hydroxy-1-(trifluoromethyl)ethyl]-6-methyl-4H-pyrrolo[3,2,1-ij]quinolin-4-one], which ED (30 mm Hg) is on record?
The ED (30 mm Hg) was 0.13 mg/kg.

Cc1c([N+](=O)[O-])c(=O)n2c3c(cc(C(O)(C(F)(F)F)C(F)(F)F)cc13)CC2 [Example 12, 1,2-dihydro-8-[2,2,2-trifluoro-1-hydroxy-1-(trifluoromethyl)-ethyl]-6-methyl-5-nitro-4H-pyrrolo[3,2,1-ij]quinolin-4-one] was tested. Which ED (30 mm Hg) did it give?
Its ED (30 mm Hg) is 1.5 mg/kg.

With Cc1c(N)c(=O)n2c3c(cc(C(O)(C(F)(F)F)C(F)(F)F)cc13)CC2 [Example 13, 1,2-dihydro-8-[2,2,2-trifluoro-1-hydroxy-1-(trifluoromethyl)-ethyl]-5-amino-6-methyl-4H-pyrrolo[3,2,1-ij]quinolin-4-one] as the molecule, how does the ED (30 mm Hg) read?
The ED (30 mm Hg) was 5.4 mg/kg.

With Cc1cc(=O)n2c3c(cc(C(O)(C(F)(F)F)C(F)(F)F)cc13)CC2C (centres unmarked) [Example 14, 1,2-dihydro-2,6-dimethyl-8-[2,2,2-trifluoro-1-hydroxy-1-(trifluoromethyl)-ethyl]-4H-pyrrolo[3,2,1-ij]quinolin-4-one] as the molecule, how does the ED (30 mm Hg) read?
Its ED (30 mm Hg) is 0.047 mg/kg.

Which ED (30 mm Hg) does the source give for CCc1cc(=O)n2c3c(cc(C(O)(C(F)(F)F)C(F)(F)F)cc13)CC2 [Example 22, 1,2-dihydro-6-ethyl-8-[2,2,2-trifluoro-1-hydroxy-1-(trifluoromethyl)ethyl]-4H-pyrrolo[3,2,1-ij]quinolin-4-one] here?
Its ED (30 mm Hg) is 0.11 mg/kg.

For Cc1cc(=O)n2c3c(cc(C(O)(C(F)(F)F)C(F)(F)F)cc13)CCCC2 [Example 23, 5,6,7,8-tetrahydro-10-[2,2,2-trifluoro-1-hydroxy-1-(trifluoromethyl)ethyl]-1-methyl-3H-azepino[3,2,1-ij]quinolin-3-one], which ED (30 mm Hg) is on record?
The ED (30 mm Hg) was 1.3 mg/kg.

Cc1cc(=O)[nH]c2ccc(C(O)(C(F)(F)F)C(F)(F)F)cc12 [Example 24, 6-(2,2,2-trifluoro-1-hydroxy-1-(trifluoromethyl)ethyl)-4-methyl-2(1H)-quinolinone] was tested. Which ED (30 mm Hg) did it give?
The ED (30 mm Hg) was 4.1 mg/kg.

How did the ED (30 mm Hg) turn out when Cc1cc(=O)[nH]c2c(C)cc(C(O)(C(F)(F)F)C(F)(F)F)cc12 [Example 25] was run?
The ED (30 mm Hg) was 3.7 mg/kg.

How did the ED (30 mm Hg) turn out when CCc1cc(C(O)(C(F)(F)F)C(F)(F)F)cc2c(C)cc(=O)[nH]c12 [Example 26] was run?
Its ED (30 mm Hg) is 1.3 mg/kg.

For CCn1c(=O)cc(C)c2cc(C(O)(C(F)(F)F)C(F)(F)F)ccc21 [Example 31, 1-ethyl-6-[2,2,2-trifluoro-1-hydroxy-1-(trifluoromethyl)ethyl]-4-methyl-2(1H)-quinolinone], which ED (30 mm Hg) is on record?
Its ED (30 mm Hg) is 1.2 mg/kg.

For Cc1cc(=O)n(C)c2ccc(C(O)(C(F)(F)F)C(F)(F)F)cc12 [Example 32], which ED (30 mm Hg) is on record?
The ED (30 mm Hg) was 0.4 mg/kg.

With CCCCn1c(=O)cc(C)c2cc(C(O)(C(F)(F)F)C(F)(F)F)ccc21 [Example 34] as the molecule, how does the ED (30 mm Hg) read?
The ED (30 mm Hg) was 5.2 mg/kg.

Which ED (30 mm Hg) does the source give for O=c1ccc2cc(C(O)(C(F)(F)F)C(F)(F)F)cc3c2n1CCC3 [Example 42, 2,3-dihydro-9-[2,2,2-trifluoro-1-hydroxy-1-(trifluoromethyl)ethyl]-1H,5H-benzo[ij]quinolizin-5-one] here?
The ED (30 mm Hg) was 3 to 9 mg/kg.

Which ED (30 mm Hg) does the source give for CCC(=O)OC(c1cc2c3c(c1)c(C)cc(=O)n3CC2)(C(F)(F)F)C(F)(F)F [Example 43, 1,2-dihydro-8-[2,2,2-trifluoro-1-hydroxy-1-(tri-fluoromethyl)ethyl]-6-methyl-4H-pyrrolo[3,2,1-ij]quinolin-4-one propanoate] here?
Its ED (30 mm Hg) is 0.22 mg/kg.

CC(=O)OC(c1cc2c3c(c1)c(C)cc(=O)n3CC2)(C(F)(F)F)C(F)(F)F [Example 44, 1,2-dihydro-8-[2,2,2-trifluoro1-hydroxy-1-(trifluoromethyl)ethyl]-6-methyl-4H-pyrrolo[3,2,1-ij]quinolin-4-one acetate] was tested. Which ED (30 mm Hg) did it give?
The ED (30 mm Hg) was 0.2 mg/kg.

For CCCCCCCCCCCC(=O)OC(c1cc2c3c(c1)c(C)cc(=O)n3CC2)(C(F)(F)F)C(F)(F)F [Example 45, 1,2-dihydro-8-[2,2,2-trifluoro-1-hydroxy-1-(trifluoromethyl)ethyl]-6-methyl-4H-pyrrolo[3,2,1-ij]quinolin-4-one laurate], which ED (30 mm Hg) is on record?
Its ED (30 mm Hg) is 0.12 mg/kg.

Which ED (30 mm Hg) does the source give for Cc1cc(=O)n2c3c(cc(C(OC(=O)c4ccccc4)(C(F)(F)F)C(F)(F)F)cc13)CC2 [Example 46] here?
Its ED (30 mm Hg) is 0.25 mg/kg.

For COC(c1cc2c3c(c1)c(C)cc(=O)n3CC2)(C(F)(F)F)C(F)(F)F [Example 50, 1,2-dihydro-8-[2,2,2-trifluoro-1-methoxy-1-(trifluoromethyl)-ethyl]-6-methyl-4H-pyrrolo[3,2,1-ij]quinolin-4-one], which ED (30 mm Hg) is on record?
Its ED (30 mm Hg) is 0.35 mg/kg.

Which ED (30 mm Hg) does the source give for CCOC(c1cc2c3c(c1)c(C)cc(=O)n3CC2)(C(F)(F)F)C(F)(F)F [Example 51] here?
Its ED (30 mm Hg) is 0.5 mg/kg.

With Cc1cc(=O)n2c3c(cc(C(O)(C(F)F)C(F)(F)F)cc13)CC2 (centres unmarked) [Example 52, 1,2-dihydro-8-[2,2,-difluoro-1-hydroxy-1-(trifluoromethyl)ethyl]-6-methyl-4H-pyrrolo[3,2,1-ij]quinolin-4-one] as the molecule, how does the ED (30 mm Hg) read?
Its ED (30 mm Hg) is 0.075 mg/kg.

With Cc1cc(=O)n2c3c(cc(C(O)(C(F)(F)F)C(F)(F)Cl)cc13)CC2 (centres unmarked) [Example 53, 1,2-dihydro-8 [2-chloro-2,2-difluoro-1-hydroxy-1-(trifluoromethyl)ethyl]-6-methyl-4H-pyrrolo[3,-2,1-ij]quinolin-4-one] as the molecule, how does the ED (30 mm Hg) read?
Its ED (30 mm Hg) is 0.07 mg/kg.

Cc1cc(=O)n2c3c(cc(C(O)(C(F)F)C(F)F)cc13)CC2 [Example 54] was tested. Which ED (30 mm Hg) did it give?
Its ED (30 mm Hg) is 1.2 mg/kg.

Same assay, conditions: Rattus norvegicus, po, 1.5 h, read-out: ED50

With Cc1c(Cl)c(=O)n2c3c(cc(C(O)(C(F)(F)F)C(F)(F)F)cc13)CCC2 [Example 9, 6-chloro-2,3-dihydro-9-[2,2,2-trifluoro-1-hydroxy-1-(trifluoromethyl)ethyl]-7-methyl-1H,5H-benzo[ij]quinolizin-5-one] as the molecule, how does the ED (30 mm Hg) read?
The ED (30 mm Hg) was 1.6 mg/kg.
